US20250197374A1, “WEE1 DEGRADING COMPOUNDS AND USES THEREOF” (BRISTOL-MYERS SQUIBB COMPANY, priority 2023, published 2025)

Tests used:
Assay type in all cases: cell-based
WEE1 = molecular target: T1, WEE1 (Homo sapiens, UniProt P30291+Q96SW2); experiment: WEE1-ePL degradation assay (293T-LentiX, InCELL Hunter luminescence, 4 hr); settings: for DC50: LentiX-HEK293T cells expressing WEE1-ePL, 4 hr incubation, read-out: 293T-LentiX WEE1-ePL Degradation 4 hr EC50; for 293T-LentiX WEE1-ePL Degradation 4 hr YMin (%): lower limit of fit, % of DMSO control signal remaining
T1 construct: C-terminal ePL-tagged (DiscoverX, Fremont, CA) full-length WEE1 expression construct; expressed in transfected cells; host or cells: LentiX-HEK293T (Invitrogen), lentivirally transduced; the cells also over-express GSPT1-GN
Method in brief: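 EC50 comes from a four-parameter logistic fit of ePL luminescence (InCELL Hunter), with DMSO control defining Ymax. Compounds ran as 10-point 3-fold dilutions from 1 or 10 µM for 4 h at 37 °C. Cells were HEK293T-LentiX with ePL-tagged full-length WEE1 and over-expressed Cereblon-resistant GSPT1-GN.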

MKN45 cells = experiment: MKN45 cell proliferation assay (Cell-Titer-Glo, 120 hr); settings: for EC50: Homo sapiens, MKN-45, 120 h, read-out: MKN45 Cell Prolif. 120 hr EC50; for MKN45 Cell Prolif. 120 hr YMin (%): minimal percent of DMSO control observed
Method in brief: (§1)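 Growth inhibition was read as CellTiter-Glo luminescence after 120 h at 37 °C in RPMI/10% FBS, with 400 MKN45 or 800 MDA-MB-231 cells seeded per well. Compounds were tested in 10-point half-log series starting at 1 or 10 uM (0.1% DMSO), in triplicate for MKN45 and duplicate for MDA-MB-231. EC50 values are four-parameter fits to %DMSO control, and Ymin-obs is the minimal observed %DMSO.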

MDA-MB-231 cells = experiment: MDA-MB-231 cell proliferation assay (Cell-Titer-Glo, 120 hr); settings: for EC50: Homo sapiens, MDA-MB-231, 120 h, read-out: MDA-MB 231 Cell Prolif. 120 hr EC50; for MDA-MB 231 Cell Prolif. 120 hr YMin (%): minimal percent of DMSO control observed
Method in brief: as §1

T1 sequence (P30291 whole entry): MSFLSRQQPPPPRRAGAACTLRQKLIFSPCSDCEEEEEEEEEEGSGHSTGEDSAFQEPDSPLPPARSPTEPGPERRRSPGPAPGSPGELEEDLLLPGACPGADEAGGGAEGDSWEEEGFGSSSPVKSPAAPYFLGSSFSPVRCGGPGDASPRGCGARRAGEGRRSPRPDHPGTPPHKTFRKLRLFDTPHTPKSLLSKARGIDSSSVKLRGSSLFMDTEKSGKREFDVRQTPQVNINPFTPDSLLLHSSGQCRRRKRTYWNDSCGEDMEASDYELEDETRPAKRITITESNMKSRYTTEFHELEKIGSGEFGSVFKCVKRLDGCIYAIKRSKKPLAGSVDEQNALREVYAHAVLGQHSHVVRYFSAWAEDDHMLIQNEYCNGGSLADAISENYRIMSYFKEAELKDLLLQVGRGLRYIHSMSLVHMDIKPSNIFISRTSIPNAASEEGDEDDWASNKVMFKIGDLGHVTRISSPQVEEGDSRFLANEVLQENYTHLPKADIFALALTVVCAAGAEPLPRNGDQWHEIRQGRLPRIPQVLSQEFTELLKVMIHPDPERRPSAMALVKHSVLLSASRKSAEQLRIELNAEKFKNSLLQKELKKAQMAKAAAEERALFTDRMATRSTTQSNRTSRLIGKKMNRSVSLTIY
T1 sequence (Q96SW2 whole entry): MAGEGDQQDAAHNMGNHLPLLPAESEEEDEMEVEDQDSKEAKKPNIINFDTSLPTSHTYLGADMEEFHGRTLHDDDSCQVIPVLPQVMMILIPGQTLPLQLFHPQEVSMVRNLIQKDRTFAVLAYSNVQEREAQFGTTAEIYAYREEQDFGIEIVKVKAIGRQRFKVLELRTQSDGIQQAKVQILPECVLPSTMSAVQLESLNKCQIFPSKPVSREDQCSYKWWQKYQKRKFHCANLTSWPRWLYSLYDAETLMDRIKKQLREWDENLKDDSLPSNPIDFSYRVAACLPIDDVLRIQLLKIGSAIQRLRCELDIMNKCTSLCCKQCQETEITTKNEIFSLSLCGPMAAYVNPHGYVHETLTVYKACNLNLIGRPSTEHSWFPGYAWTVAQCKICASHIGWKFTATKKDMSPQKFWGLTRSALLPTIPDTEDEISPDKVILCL
T1 sequence (Q16531 whole entry partner): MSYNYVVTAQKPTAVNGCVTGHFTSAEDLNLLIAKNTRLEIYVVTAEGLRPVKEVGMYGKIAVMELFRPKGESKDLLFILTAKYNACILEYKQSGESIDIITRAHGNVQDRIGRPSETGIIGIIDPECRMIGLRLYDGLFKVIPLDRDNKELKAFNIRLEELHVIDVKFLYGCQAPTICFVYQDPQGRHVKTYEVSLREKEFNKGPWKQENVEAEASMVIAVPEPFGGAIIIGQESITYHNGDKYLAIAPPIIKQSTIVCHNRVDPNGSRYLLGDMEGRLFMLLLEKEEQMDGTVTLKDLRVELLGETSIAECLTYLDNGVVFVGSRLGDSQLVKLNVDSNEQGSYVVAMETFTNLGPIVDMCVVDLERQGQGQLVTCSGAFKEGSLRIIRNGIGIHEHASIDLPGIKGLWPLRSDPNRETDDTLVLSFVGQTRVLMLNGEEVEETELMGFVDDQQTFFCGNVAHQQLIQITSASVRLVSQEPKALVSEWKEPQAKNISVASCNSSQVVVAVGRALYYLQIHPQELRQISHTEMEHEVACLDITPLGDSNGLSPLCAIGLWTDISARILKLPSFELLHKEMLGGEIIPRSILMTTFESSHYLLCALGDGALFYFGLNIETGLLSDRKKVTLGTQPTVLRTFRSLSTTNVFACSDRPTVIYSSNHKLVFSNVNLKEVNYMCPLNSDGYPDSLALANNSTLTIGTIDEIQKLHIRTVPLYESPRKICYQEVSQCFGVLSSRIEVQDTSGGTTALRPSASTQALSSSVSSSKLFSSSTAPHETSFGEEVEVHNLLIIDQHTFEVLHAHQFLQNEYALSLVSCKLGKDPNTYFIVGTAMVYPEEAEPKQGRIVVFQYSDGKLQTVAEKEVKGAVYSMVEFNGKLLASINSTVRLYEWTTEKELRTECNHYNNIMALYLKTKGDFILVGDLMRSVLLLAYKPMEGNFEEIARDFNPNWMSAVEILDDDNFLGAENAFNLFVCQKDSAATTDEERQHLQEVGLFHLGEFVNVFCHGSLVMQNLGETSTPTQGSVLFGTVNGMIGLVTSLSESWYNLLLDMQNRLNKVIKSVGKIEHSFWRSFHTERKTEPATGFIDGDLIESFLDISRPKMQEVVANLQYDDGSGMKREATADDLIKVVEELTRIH

DC50 (WEE1) [nM] | 293T-LentiX WEE1-ePL Degradation 4 hr YMin (%) (WEE1) | EC50 (MKN45 cells) [nM] | EC50 (MDA-MB-231 cells) [nM] | SMILES | MKN45 Cell Prolif. 120 hr YMin (%) (MKN45 cells) | MDA-MB 231 Cell Prolif. 120 hr YMin (%) (MDA-MB-231 cells)
2 | 27.4 | 5 | 63 | O=C1CC[C@H](N2Cc3cc(O[C@@H]4CN(Cc5ccc6nc(N7C[C@H]8CCO[C@H]8C7)ccc6c5)CC4(F)F)ccc3C2=O)C(=O)N1 (single isomer, unassigned) [Example 6, (S)-3-(5-(((R)-4,4-difluoro-1-((2-((3aR*,6aR*)-hexahydro-5H-furo[2,3-c]pyrrol-5-yl)quinolin-6-yl)methyl)pyrrolidin-3-yl)oxy)-1-oxoisoindolin-2-yl)piperidine-2,6-dione] | 11.8 | 62.4
1 | 30.5 | 11 | 127 | COC[C@@H]1CN(Cc2ccc3nc(C4CCOCC4)ccc3n2)C[C@H]1Oc1ccc2c(c1)CN([C@H]1CCC(=O)NC1=O)C2=O [Example 128, (3S)-3-(5-{[(3S,4S)-4-(methoxymethyl)-1-{[6-(oxan-4-yl)-1,5-naphthyridin-2-yl]methyl}pyrrolidin-3-yl]oxy}-1-oxo-2,3-dihydro-1H-isoindol-2-yl)piperidine-2,6-dione] | 18.2 | 83.3
1 | 27.4 | 3 | 54 | COC[C@@H]1CN(Cc2cc(F)c3nc(C4(O)CCOCC4)ccc3c2)C[C@H]1Oc1ccc2c(c1)CN([C@H]1CCC(=O)NC1=O)C2=O [Example 60, (3S)-3-(5-{[(3S,4S)-1-{[8-fluoro-2-(4-hydroxyoxan-4-yl)quinolin-6-yl]methyl}-4-(methoxymethyl)pyrrolidin-3-yl]oxy}-1-oxo-2,3-dihydro-1H-isoindol-2-yl)piperidine-2,6-dione] | 11.7 | 33.7
2 | 28.4 | 6 | 73 | O=C1CC[C@H](N2Cc3cc(O[C@@H]4CN(Cc5cc(F)c6nc(N7C[C@@H]8CCO[C@@H]8C7)ccc6c5)CC4(F)F)ccc3C2=O)C(=O)N1 (single isomer, unassigned) [Example 15, (S)-3-(5-(((R)-4,4-difluoro-1-((8-fluoro-2-((3aS*,6aS*)-hexahydro-5H-furo[2,3-c]pyrrol-5-yl)quinolin-6-yl)methyl)pyrrolidin-3-yl)oxy)-1-oxoisoindolin-2-yl)piperidine-2,6-dione] | 8.8 | 31.4
1 | 29.8 | 1 | 22 | COC[C@@H]1CN(Cc2cc(F)c3nc(N4CCC(OC)C4)ccc3c2)C[C@H]1Oc1ccc2c(c1)CN([C@H]1CCC(=O)NC1=O)C2=O (single isomer, unassigned) [Example 97, (S)-3-(5-(((3S,4S)-1-((8-fluoro-2-((R*)-3-methoxypyrrolidin-1-yl)quinolin-6-yl)methyl)-4-(methoxymethyl)pyrrolidin-3-yl)oxy)-1-oxoisoindolin-2-yl)piperidine-2,6-dione] | 8.7 | 22.0
2 | 27.8 | 2 | 70 | COC[C@@H]1CN(Cc2cc(F)c3nc(N4C[C@H]5CCO[C@H]5C4)ncc3c2)C[C@H]1Oc1ccc2c(c1)CN([C@H]1CCC(=O)NC1=O)C2=O (single isomer, unassigned) [Example 10, (S)-3-(5-(((3S,4S)-1-((8-fluoro-2-((3aR*,6aR*)-hexahydro-5H-furo[2,3-c]pyrrol-5-yl)quinazolin-6-yl)methyl)-4-(methoxymethyl)pyrrolidin-3-yl)oxy)-1-oxoisoindolin-2-yl)piperidine-2,6-dione] | 10.6 | 24.6
3 | 29.8 | 7 | 73 | COC[C@@H]1CN(Cc2ccc3nc(N4C[C@@H]5CCO[C@@H]5C4)ncc3c2)C[C@H]1Oc1ccc2c(c1)CN([C@H]1CCC(=O)NC1=O)C2=O (single isomer, unassigned) [Example 18, (S)-3-(5-(((3S,4S)-1-((2-((3aS*,6aS*)-hexahydro-5H-furo[2,3-c]pyrrol-5-yl)quinazolin-6-yl)methyl)-4-(methoxymethyl)pyrrolidin-3-yl)oxy)-1-oxoisoindolin-2-yl)piperidine-2,6-dione] | 10.1 | 28.4
75 | 39.0 | 282 | 73 | O=C(O)CC(CCO)c1ccc2cc(CN3CC[C@H](Oc4ccc5c(c4)CN([C@H]4CCC(=O)NC4=O)C5=O)C3)cc(F)c2n1 (relative stereo) [Example 99, rel-3-(6-{[(3S)-3-({2-[(3S)-2,6-dioxopiperidin-3-yl]-1-oxo-2,3-dihydro-1H-isoindol-5-yl}oxy)pyrrolidin-1-yl]methyl}-8-fluoroquinolin-2-yl)-5-hydroxypentanoic acid] | 82.9 | 78.7
6 | 21.5 | 9 | 213 | COC[C@@H]1CN(Cc2cc3ccc(C(=O)N(C)C)cc3cn2)C[C@H]1Oc1ccc2c(c1)CN([C@H]1CCC(=O)NC1=O)C2=O [Example 115, 3-{[(3S,4S)-3-({2-[(3S)-2,6-dioxopiperidin-3-yl]-1-oxo-2,3-dihydro-1H-isoindol-5-yl}oxy)-4-(methoxymethyl)pyrrolidin-1-yl]methyl}-N,N-dimethyliso-quinoline-7-carboxamide] | 9.4 | 41.5
4 | 27.5 | 6 | 105 | COC[C@@H]1CN(Cc2ccc3nc(N4C[C@H]5CCO[C@H]5C4)ncc3c2)C[C@H]1Oc1ccc2c(c1)CN([C@H]1CCC(=O)NC1=O)C2=O (single isomer, unassigned) [Example 8, (S)-3-(5-(((3S,4S)-1-((2-((3aR*,6aR*)-hexahydro-5H-furo[2,3-c]pyrrol-5-yl)quinazolin-6-yl)methyl)-4-(methoxymethyl)pyrrolidin-3-yl)oxy)-1-oxoisoindolin-2-yl)piperidine-2,6-dione] | 10.0 | 31.9
4 | 31.6 | 7 | 100 | COC[C@@H]1CN(Cc2cc(F)c3nc(C4(O)CCOCC4)ncc3c2)C[C@H]1Oc1ccc2c(c1)CN([C@H]1CCC(=O)NC1=O)C2=O [Example 62, (3S)-3-(5-{[(3S,4S)-1-{[8-fluoro-2-(4-hydroxyoxan-4-yl)quinazolin-6-yl]methyl}-4-(methoxymethyl)pyrrolidin-3-yl]oxy}-1-oxo-2,3-dihydro-1H-isoindol-2-yl)piperidine-2,6-dione] | 11.9 | 33.0
1 | 27.9 | 1 | 22 | COC[C@@H]1CN(Cc2cc(F)c3nc(N4CCN(C(C)=O)C5(CC5)C4)ncc3c2)C[C@H]1Oc1ccc2c(c1)CN([C@H]1CCC(=O)NC1=O)C2=O [Example 85, (3S)-3-(5-{[(3S,4S)-1-[(2-{4-acetyl-4,7-diazaspiro[2.5]octan-7-yl}-8-fluoroquinazolin-6-yl)methyl]-4-(methoxymethyl)pyrrolidin-3-yl]oxy}-1-oxo-2,3-dihydro-1H-isoindol-2-yl)piperidine-2,6-dione] | 11.1 | 16.6
41 | 25.5 | 11 | 99 | COC[C@@H]1CN(Cc2cc(F)c3nc(C4CCCO4)ncc3c2)C[C@H]1Oc1ccc2c(c1)CN([C@H]1CCC(=O)NC1=O)C2=O (mixture of isomers) [Example 76, rel-(3S)-3-(5-{[(3S,4S)-1-{[8-fluoro-2-(oxolan-2-yl)quinazolin-6-yl]methyl}-4-(methoxymethyl)pyrrolidin-3-yl]oxy}-1-oxo-2,3-dihydro-1H-isoindol-2-yl)piperidine-2,6-dione] | 9.4 | 17.9
– | 23.6 | – | 67 | COC[C@@H]1CN(Cc2cc(F)c3nc(C45CCC(C(C)(C)O)(CC4)CC5)ccc3c2)C[C@H]1Oc1ccc2c(c1)CN([C@H]1CCC(=O)NC1=O)C2=O [Example 119, (S)-3-(5-(((3S,4S)-1-((8-fluoro-2-(4-(2-hydroxypropan-2-yl)bicyclo[2.2.2]octan-1-yl)quinolin-6-yl)methyl)-4-(methoxymethyl)pyrrolidin-3-yl)oxy)-1-oxoisoindolin-2-yl)piperidine-2,6-dione] | 6.8 | 1.7
